Data as given in ChEMBL document CHEMBL6153025, “Multidrug-resistant bacteria quorum-sensing inhibitors: A particular focus on Pseudomonasaeruginosa” (Eur J Med Chem, 2025).
In brackets after ≈: the same amount, converted by molar mass.

Tests used:
Pseudomonas aeruginosa [1] = test: Antivirulence activity against Pseudomonas aeruginosa PAO1 assessed as inhibition of pyocyanin production; format: functional, organism-based
[2] = Inhibition of quorum sensing system in Pseudomonas aeruginosa PAO1-pqsA assessed as reduction in fluorescence intensity measured for 12 hrs by GFP reporter strain assay
Pseudomonas aeruginosa [3] = test: Antibiofilm activity against Pseudomonas aeruginosa PAO1 assessed as reduction in biofilm formation at 16 ug/ml incubated for 2 to 4 hrs by crystal violet staining based analysis relative to control; format: functional; design: scale not given: the % may be the effect or the level left; settings: dose 16 µg/ml; time 2-4 hrs
Pseudomonas aeruginosa [4] = test: Antibiofilm activity against Pseudomonas aeruginosa PA21 assessed as reduction in biofilm formation at 1/2 sub-MIC doses incubated for 24 hrs by crystal violet staining based analysis relative to control; format: functional; design: scale not given: the % may be the effect or the level left
Pseudomonas aeruginosa [5] = test: Antibiofilm activity against Pseudomonas aeruginosa PA22 assessed as reduction in biofilm formation at 1/2 sub-MIC doses incubated for 24 hrs by crystal violet staining based analysis relative to control; format: functional; design: scale not given: the % may be the effect or the level left
Pseudomonas aeruginosa [6] = test: Antibiofilm activity against Pseudomonas aeruginosa PA23 assessed as reduction in biofilm formation at 1/2 sub-MIC doses incubated for 24 hrs by crystal violet staining based analysis relative to control; format: functional; design: scale not given: the % may be the effect or the level left
Pseudomonas aeruginosa [7] = test: Antibiofilm activity against Pseudomonas aeruginosa PA24 assessed as reduction in biofilm formation at 1/2 sub-MIC doses incubated for 24 hrs by crystal violet staining based analysis relative to control; format: functional; design: scale not given: the % may be the effect or the level left
Pseudomonas aeruginosa [8] = test: Antibiofilm activity against Pseudomonas aeruginosa PAO1 assessed as reduction in biofilm formation at 1/2 sub-MIC doses incubated for 24 hrs by crystal violet staining based analysis relative to control; format: functional; design: scale not given: the % may be the effect or the level left
Pseudomonas aeruginosa [9] = test: Antibiofilm activity against Pseudomonas aeruginosa PA14 assessed as reduction in biofilm formation at 1/2 sub-MIC doses incubated for 24 hrs by crystal violet staining based analysis relative to control; format: functional; design: scale not given: the % may be the effect or the level left
Pseudomonas aeruginosa [10] = test: Antibiofilm activity against Pseudomonas aeruginosa PA21 assessed as reduction in biofilm formation at 1/4 sub-MIC doses incubated for 24 hrs by crystal violet staining based analysis relative to control; format: functional; design: scale not given: the % may be the effect or the level left
Pseudomonas aeruginosa [11] = test: Antibiofilm activity against Pseudomonas aeruginosa PA22 assessed as reduction in biofilm formation at 1/4 sub-MIC doses incubated for 24 hrs by crystal violet staining based analysis relative to control; format: functional; design: scale not given: the % may be the effect or the level left
Pseudomonas aeruginosa [12] = test: Antibiofilm activity against Pseudomonas aeruginosa PA23 assessed as reduction in biofilm formation at 1/4 sub-MIC doses incubated for 24 hrs by crystal violet staining based analysis relative to control; format: functional; design: scale not given: the % may be the effect or the level left
Pseudomonas aeruginosa [13] = test: Antibiofilm activity against Pseudomonas aeruginosa PA24 assessed as reduction in biofilm formation at 1/4 sub-MIC doses incubated for 24 hrs by crystal violet staining based analysis relative to control; format: functional; design: scale not given: the % may be the effect or the level left
Pseudomonas aeruginosa [14] = test: Antibiofilm activity against Pseudomonas aeruginosa PAO1 assessed as reduction in biofilm formation at 1/4 sub-MIC doses incubated for 24 hrs by crystal violet staining based analysis relative to control; format: functional; design: scale not given: the % may be the effect or the level left
Pseudomonas aeruginosa [15] = test: Antibiofilm activity against Pseudomonas aeruginosa PA14 assessed as reduction in biofilm formation at 1/4 sub-MIC doses incubated for 24 hrs by crystal violet staining based analysis relative to control; format: functional; design: scale not given: the % may be the effect or the level left
Pseudomonas aeruginosa [16] = test: Antivirulence activity against Pseudomonas aeruginosa PA21 assessed as reduction in protease production incubated for 1 hr by absorbance based analysis relative to control; format: functional; design: scale not given: the % may be the effect or the level left
Pseudomonas aeruginosa [17] = test: Antivirulence activity against Pseudomonas aeruginosa PA22 assessed as reduction in protease production incubated for 1 hr by absorbance based analysis relative to control; format: functional; design: scale not given: the % may be the effect or the level left
Pseudomonas aeruginosa [18] = test: Antivirulence activity against Pseudomonas aeruginosa PA23 assessed as reduction in protease production incubated for 1 hr by absorbance based analysis relative to control; format: functional; design: scale not given: the % may be the effect or the level left
Pseudomonas aeruginosa [19] = test: Antivirulence activity against Pseudomonas aeruginosa PA24 assessed as reduction in protease production incubated for 1 hr by absorbance based analysis relative to control; format: functional; design: scale not given: the % may be the effect or the level left
Pseudomonas aeruginosa [20] = test: Antivirulence activity against Pseudomonas aeruginosa PAO1 assessed as reduction in protease production incubated for 1 hr by absorbance based analysis relative to control; format: functional; design: scale not given: the % may be the effect or the level left
Pseudomonas aeruginosa [21] = test: Antivirulence activity against Pseudomonas aeruginosa PA14 assessed as reduction in protease production incubated for 1 hr by absorbance based analysis relative to control; format: functional; design: scale not given: the % may be the effect or the level left
Pseudomonas aeruginosa [22] = test: Antivirulence activity against Pseudomonas aeruginosa PA14 assessed as reduction in pyocyanin production incubated for 1 hr by absorbance based analysis relative to control; format: functional; design: scale not given: the % may be the effect or the level left
Pseudomonas aeruginosa [23] = test: Antivirulence activity against Pseudomonas aeruginosa PAO1 assessed as reduction in pyocyanin production incubated for 1 hr by absorbance based analysis relative to control; format: functional; design: scale not given: the % may be the effect or the level left
Pseudomonas aeruginosa [24] = test: Antivirulence activity against Pseudomonas aeruginosa PA24 assessed as reduction in pyocyanin production incubated for 1 hr by absorbance based analysis relative to control; format: functional; design: scale not given: the % may be the effect or the level left
Pseudomonas aeruginosa [25] = test: Antivirulence activity against Pseudomonas aeruginosa PA23 assessed as reduction in pyocyanin production incubated for 1 hr by absorbance based analysis relative to control; format: functional; design: scale not given: the % may be the effect or the level left
Pseudomonas aeruginosa [26] = test: Antivirulence activity against Pseudomonas aeruginosa PA22 assessed as reduction in pyocyanin production incubated for 1 hr by absorbance based analysis relative to control; format: functional; design: scale not given: the % may be the effect or the level left
Pseudomonas aeruginosa [27] = test: Antivirulence activity against Pseudomonas aeruginosa PA21 assessed as reduction in pyocyanin production incubated for 1 hr by absorbance based analysis relative to control; format: functional; design: scale not given: the % may be the effect or the level left
Pseudomonas aeruginosa [28] = test: Antivirulence activity against Pseudomonas aeruginosa PA21 assessed as reduction in hemolysin activity incubated for 1 hr by absorbance based analysis relative to control; format: functional; design: scale not given: the % may be the effect or the level left
Pseudomonas aeruginosa [29] = test: Antivirulence activity against Pseudomonas aeruginosa PA22 assessed as reduction in hemolysin activity incubated for 1 hr by absorbance based analysis relative to control; format: functional; design: scale not given: the % may be the effect or the level left
Pseudomonas aeruginosa [30] = test: Antivirulence activity against Pseudomonas aeruginosa PA23 assessed as reduction in hemolysin activity incubated for 1 hr by absorbance based analysis relative to control; format: functional; design: scale not given: the % may be the effect or the level left
Pseudomonas aeruginosa [31] = test: Antivirulence activity against Pseudomonas aeruginosa PA24 assessed as reduction in hemolysin activity incubated for 1 hr by absorbance based analysis relative to control; format: functional; design: scale not given: the % may be the effect or the level left
Pseudomonas aeruginosa [32] = test: Antivirulence activity against Pseudomonas aeruginosa PAO1 assessed as reduction in hemolysin activity incubated for 1 hr by absorbance based analysis relative to control; format: functional; design: scale not given: the % may be the effect or the level left
Pseudomonas aeruginosa [33] = test: Antivirulence activity against Pseudomonas aeruginosa PA14 assessed as reduction in hemolysin activity incubated for 1 hr by absorbance based analysis relative to control; format: functional; design: scale not given: the % may be the effect or the level left
Pseudomonas aeruginosa [34] = test: Antimicrobial activity against Pseudomonas aeruginosa PAO1 assessed as reduction in bacterial growth measured for 24 hrs by broth micro-dilution method; format: functional
Pseudomonas aeruginosa [35] = test: Antibacterial activity against Pseudomonas aeruginosa PAO1 assessed as bacterial growth inhibition after 20 hrs by liquid microdilution method; format: functional, organism-based; settings: PAO1, 20 h
Pseudomonas aeruginosa [36] = test: Antivirulence activity against Pseudomonas aeruginosa PAO1 assessed as reduction in pyocyanin production; format: functional, organism-based
Pseudomonas aeruginosa [37] = test: Antivirulence activity against Pseudomonas aeruginosa PAO1 assessed as reduction in elastase production; format: functional, organism-based
Pseudomonas aeruginosa [38] = test: Antivirulence activity against Pseudomonas aeruginosa PAO1 assessed as reduction in protease production; format: functional, organism-based

**Q.** Which results are given for `CC(C)=CCC/C(C)=C/CC/C(C)=C/CO` [FARNESOL]?
**A.** IC50 (Pseudomonas aeruginosa [1]): 1.11 µg/mL (≈ 4.99 µM); IC50 [2]: 0.14 µg/mL (≈ 0.63 µM)

**Q.** Which Activity (Pseudomonas aeruginosa [3]) does the source give for `COC(=O)c1cc(O)c(O)c(O)c1` [GALLIC ACID METHYL ESTER] here?
**A.** 63%

**Q.** And the Activity (Pseudomonas aeruginosa [4])?
**A.** 83.3%

**Q.** And the Activity (Pseudomonas aeruginosa [5])?
**A.** 82.2%

**Q.** What about the Activity (Pseudomonas aeruginosa [6]) of the same molecule?
**A.** 83.8%

**Q.** And the Activity (Pseudomonas aeruginosa [7])?
**A.** 83.7%

**Q.** What about the Activity (Pseudomonas aeruginosa [8]) of the same molecule?
**A.** 83%

**Q.** And the Activity (Pseudomonas aeruginosa [9])?
**A.** 81.6%

**Q.** What about the Activity (Pseudomonas aeruginosa [10]) of the same molecule?
**A.** 77.8%

**Q.** What about the Activity (Pseudomonas aeruginosa [11]) of the same molecule?
**A.** 81.5%

**Q.** What about the Activity (Pseudomonas aeruginosa [12]) of the same molecule?
**A.** 77.9%

**Q.** And the Activity (Pseudomonas aeruginosa [13])?
**A.** 78.1%

**Q.** And the Activity (Pseudomonas aeruginosa [14])?
**A.** 77.6%

**Q.** And the Activity (Pseudomonas aeruginosa [15])?
**A.** 78.6%

**Q.** What about the Activity (Pseudomonas aeruginosa [16]) of the same molecule?
**A.** 53.6%

**Q.** And the Activity (Pseudomonas aeruginosa [17])?
**A.** 47.3%

**Q.** And the Activity (Pseudomonas aeruginosa [18])?
**A.** 27.6%

**Q.** What about the Activity (Pseudomonas aeruginosa [19]) of the same molecule?
**A.** 42.4%

**Q.** What about the Activity (Pseudomonas aeruginosa [20]) of the same molecule?
**A.** 40.3%

**Q.** What about the Activity (Pseudomonas aeruginosa [21]) of the same molecule?
**A.** 40.1%

**Q.** What about the Activity (Pseudomonas aeruginosa [22]) of the same molecule?
**A.** 66.5%

**Q.** And the Activity (Pseudomonas aeruginosa [23])?
**A.** 68.1%

**Q.** What about the Activity (Pseudomonas aeruginosa [24]) of the same molecule?
**A.** 78.7%

**Q.** And the Activity (Pseudomonas aeruginosa [25])?
**A.** 79.6%

**Q.** And the Activity (Pseudomonas aeruginosa [26])?
**A.** 80.9%

**Q.** And the Activity (Pseudomonas aeruginosa [27])?
**A.** 87.3%

**Q.** And the Activity (Pseudomonas aeruginosa [28])?
**A.** 63.2%

**Q.** What about the Activity (Pseudomonas aeruginosa [29]) of the same molecule?
**A.** 57.8%

**Q.** And the Activity (Pseudomonas aeruginosa [30])?
**A.** 49.8%

**Q.** What about the Activity (Pseudomonas aeruginosa [31]) of the same molecule?
**A.** 55.7%

**Q.** What about the Activity (Pseudomonas aeruginosa [32]) of the same molecule?
**A.** 63.9%

**Q.** What about the Activity (Pseudomonas aeruginosa [33]) of the same molecule?
**A.** 60.5%

**Q.** Which MIC (Pseudomonas aeruginosa [34]) does the source give for `Fc1ccc(-c2nn(-c3ccc(Cl)cc3)cc2-c2nc(-c3ccccc3)c(-c3ccccc3)[nH]2)c(Br)c1` here?
**A.** 63 µg/mL (≈ 111 µM)

**Q.** Which IC50 (Pseudomonas aeruginosa [35]) does the source give for `COc1c(O)cc(O)c2c(=O)cc(-c3ccccc3)oc12` [WOGONIN] here?
**A.** 15 µg/mL (≈ 52.8 µM)

**Q.** What about the IC50 (Pseudomonas aeruginosa [36]) of the same molecule?
**A.** 15 µg/mL (≈ 52.8 µM)

**Q.** And the IC50 (Pseudomonas aeruginosa [37])?
**A.** 15 µg/mL (≈ 52.8 µM)

**Q.** What about the IC50 (Pseudomonas aeruginosa [38]) of the same molecule?
**A.** 15 µg/mL (≈ 52.8 µM)
